Reference: publication PMC5035006, “Binding and Inhibition of Spermidine Synthase from Plasmodium falciparum and Implications for In Vitro Inhibitor Testing” (PLoS ONE, 2016)
Where “and” joins values, the source holds several entries; their conditions need not be identical. Equal entries are not always repeated. Where two headings read alike, the source gives them in different places.

Experiments:
PfSpdS [1] = biological target: T1, PfSpdS (Plasmodium falciparum, UniProt Q8II73); conditions: cited from earlier work
T1 sequence (Q8II73 entry or part of it): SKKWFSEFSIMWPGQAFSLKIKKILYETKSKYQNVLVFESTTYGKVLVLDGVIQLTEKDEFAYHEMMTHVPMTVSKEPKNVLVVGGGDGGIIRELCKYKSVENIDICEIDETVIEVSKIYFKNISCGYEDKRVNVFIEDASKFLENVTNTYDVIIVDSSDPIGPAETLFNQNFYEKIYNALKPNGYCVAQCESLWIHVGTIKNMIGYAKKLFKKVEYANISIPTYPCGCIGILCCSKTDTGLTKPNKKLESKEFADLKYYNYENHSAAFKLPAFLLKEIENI

PfSpdS [2] = biological target: T1, PfSpdS; test: biochemical; format: binding
Experimental: Protein samples of 1 mg/ml were dialyzed overnight at 4°C against buffer containing 100 mM HEPES, pH 7.5, 250 mM NaCl. Protein concentration was determined by UV absorption (A280 = 1 for 1.3 mg/mL) immediately before loading into the calorimeter cell. […] The protein at a concentration of 0.8–30 μM was loaded into the sample cell of a VP-ITC microcalorimeter (MicroCal, Inc.). All measurements were performed at 25°C with 25 injections of the ligand of 10 μl each delivered in 20 s with 240 s delays between injections. […] Titrations of ligands into dialysis buffer were performed additionally and in case of non-negligible dilution heat the dilution profile(s) were subtracted point-by-point from the reaction profile. The dilution factor was taken into account for the binding curve fitting. Prior to titration of a second ligand into protein in presence of a first ligand, titration of dcAdoMet or MTA was carried out to saturating concentrations. […] The ligand- and buffer-subtracted integrated binding data were fitted using a single-site binding model in MicroCal Origin software.
The solution conditions for which the reported parameter values apply are 100 mM HEPES pH 7.5, 250 mM NaCl, 25°C.

PfSpdS [3] = biological target: T1, PfSpdS; test: biochemical; conditions: for inhibitory effects on PfSpdS activity: at concentrations of 0.1 or 1 mM, data not shown
Experimental: The enzyme assays were incubated for 30 min at 37°C and terminated by addition of 100 μl of 0.4 M HClO4. The amount of spermidine formed was determined by HPLC with θ-phthaldialdehyde as the reagent essentially as described by Seiler & Knödgen.
Determination of IC50 values was performed in standard assays containing increasing concentrations of inhibitors.

mammalian SpdS = conditions: cited from earlier work
P. falciparum = tested on: P. falciparum; parameters: method as in PMID 15913804; conditions: at micromolar concentrations; cited from earlier work
PfSpdS [4] = biological target: T1, PfSpdS; parameters: method as in PMID 18410081; conditions: cited from earlier work
human SpdS = biological target: human SpdS; parameters: method as in PMID 21898642; conditions: 20 mM sodium phosphate pH 7.5, 50 mM NaCl, 25°C; cited from earlier work
[5] = free PfSpdS, 100 mM HEPES pH 7.5, 250 mM NaCl, 25°C
[6] = free PfSpdS, 100 mM HEPES pH 7.5, 250 mM NaCl, 25°C, read-out: KD
[7] = PfSpdS saturated with MTA (ligand 1), values for ligand 2
[8] = PfSpdS saturated with MTA (ligand 1), values for ligand 2, read-out: KD
[9] = KD, PfSpdS saturated with MTA (ligand 1), values for ligand 2
[10] = KD, free PfSpdS, 100 mM HEPES pH 7.5, 250 mM NaCl, 25°C
[11] = free PfSpdS, listed as with footnote mark a
[12] = free PfSpdS, listed as with footnote mark b: fit was done setting N = 1

**Q.** Which IC50 (PfSpdS [1]; 100 μM dcAdoMet, 200 μM putrescine) does the source give for 5′-methylthioadenosine [MTA] here?
**A.** 160 µM and 159 µM

**Q.** And the Inhibition type (PfSpdS [1])?
**A.** product inhibition

**Q.** And the ΔH (PfSpdS [2]; [5])?
**A.** -2.7 ± 0.3 kcal/mol

**Q.** And the ΔS (PfSpdS [2]; [5])?
**A.** 18.6 cal/mol/deg

**Q.** What about the Kd (PfSpdS [2]; [6]) of the same compound?
**A.** 0.9 ± 0.5 µM

**Q.** For NCc1ccc(N)cc1 [4AMA, 4-aminomethylaniline], which “inhibitory effects on PfSpdS activity” value (PfSpdS [3]) is on record?
**A.** no or only minor inhibitory effects

**Q.** And the IC50 (PfSpdS [3]; read-out: IC50)?
**A.** > 1000 µM

**Q.** And the “affinity for free PfSpdS (in words)” value (PfSpdS [2])?
**A.** no measurable affinity

**Q.** What about the ΔH (PfSpdS [2]; [7]) of the same compound?
**A.** -3.5 ± 0.2 kcal/mol

**Q.** And the ΔS (PfSpdS [2]; [7])?
**A.** 7.84 cal/mol/deg

**Q.** And the Kd (PfSpdS [2]; [8])?
**A.** 45.3 ± 5.1 µM

**Q.** And the Kd (PfSpdS [2]; PfSpdS saturated with dcAdoMet (ligand 1), values for ligand 2, read-out: KD)?
**A.** > 300 µM

**Q.** What about the Kd (PfSpdS [2]; [6]) of the same compound?
**A.** > 300 µM

**Q.** What does the source list for Cc1ccc(N)cc1 [4MAN, 4-methylaniline]?
**A.** IC50 (PfSpdS [3]): 23 µM; Ki (PfSpdS [3]): 8.2 µM; Inhibition type (PfSpdS [3]; Lineweaver-Burke plots, 0.1 mM dcAdoMet): competitive with putrescine; affinity for free PfSpdS (in words) (PfSpdS [2]): no measurable affinity; Kd (PfSpdS [2]; [9]): > 300 µM; Kd (PfSpdS [2]; KD, PfSpdS saturated with dcAdoMet (ligand 1), values for ligand 2): 7.7 ± 1.2 µM; Kd (PfSpdS [2]; [10]): > 300 µM; affinity to PfSpdS in presence of MTA (in words) (PfSpdS [2]; PfSpdS saturated with MTA, detection limit KD ~ 300 μM): no detectable affinity; IC50 (mammalian SpdS): 108 µM

**Q.** Which Inhibition type (PfSpdS [1]) does the source give for C[C@H]1CC[C@H](N)CC1 [4MCHA, trans-4-methylcyclohexylamine] here?
**A.** competitive inhibitor with respect to putrescine

**Q.** What about the Ki (PfSpdS [1]) of the same compound?
**A.** 0.18 µM

**Q.** What about the “inhibition of P. falciparum cell growth in vitro (in words)” value (P. falciparum) of the same compound?
**A.** strongly inhibit

**Q.** Which results are given for NCCCCCC(CCN)SCC1OC(n2cnc3c(N)ncnc32)C(O)C1O (stereo not drawn) [AdoDATO, S-adenosyl-3-thio-1,8-diaminooctane]?
**A.** Inhibition type (PfSpdS [3]): mixed-type inhibition with putrescine; Ki uncompetitive (PfSpdS [3]): 12.2 µM; Ki (PfSpdS [3]; read-out: Ki competitive): 3.4 µM; IC50 (PfSpdS [3]; read-out: predicted IC50 from Eq (2)): 10 µM; ΔH (PfSpdS [2]; [5]): -5.5 ± 0.2 kcal/mol; ΔS (PfSpdS [2]; [5]): 6.9 cal/mol/deg; Kd (PfSpdS [2]; [6]): 2.8 ± 0.5 µM

**Q.** Which results are given for NCCCCCc1nc2ccccc2[nH]1 [BIPA, 5-(1H-benzimidazol-2-yl)pentan-1-amine]?
**A.** IC50 (PfSpdS [3]; PfSpdS assays, L. Persson, unpublished results, read-out: IC50): > 100 µM; inhibitory effects on PfSpdS activity (PfSpdS [3]): no or only minor inhibitory effects; IC50 (PfSpdS [3]; read-out: IC50): > 1000 µM; binding to the enzyme by NMR spectroscopy (in words) (PfSpdS [4]): bind strongly; ΔH (PfSpdS [2]; [5]): 1.5 ± 0.3 kcal/mol; ΔS (PfSpdS [2]; [5]): 27.1 cal/mol/deg; Kd (PfSpdS [2]; [6]): 15.2 ± 8.2 µM

**Q.** With NCCCN[C@H]1CC[C@H](N)CC1 [NACD] as the compound, how does the ΔH (PfSpdS [2]; [7]) read?
**A.** -0.6 ± 0.1 kcal/mol

**Q.** What about the ΔS (PfSpdS [2]; [7]) of the same compound?
**A.** 28.4 cal/mol/deg

**Q.** What about the Kd (PfSpdS [2]; [8]) of the same compound?
**A.** ~0.3 µM and 0.3 µM

**Q.** And the ΔH (PfSpdS [2]; [11])?
**A.** 51.8 ± 2.5 kcal/mol

**Q.** What about the ΔS (PfSpdS [2]; [11]) of the same compound?
**A.** 196 cal/mol/deg

**Q.** And the Kd (PfSpdS [2]; free PfSpdS, listed as with footnote mark a, read-out: KD)?
**A.** 8.4 ± 0.7 µM

**Q.** What about the ΔH (PfSpdS [2]; [12]) of the same compound?
**A.** 17.6 ± 9.0 kcal/mol

**Q.** And the ΔS (PfSpdS [2]; [12])?
**A.** 82.8 cal/mol/deg

**Q.** And the Kd (PfSpdS [2]; free PfSpdS, listed as with footnote mark b: fit was done setting N = 1, read-out: KD)?
**A.** 6.1 ± 1.6 µM

**Q.** Which Km (PfSpdS [1]; read-out: Km for putrescine, 29-residue-truncated PfSpdS) does the source give for NCCCCN [Putrescine, putrescine] here?
**A.** 52 µM

**Q.** And the Kd (PfSpdS [2]; [9])?
**A.** 59.5 ± 8.2 µM

**Q.** What about the Kd (PfSpdS [2]; [10]) of the same compound?
**A.** > 300 µM

**Q.** What about the ΔH (PfSpdS [2]; [7]) of the same compound?
**A.** -12.4 ± 0.9 kcal/mol

**Q.** And the ΔS (PfSpdS [2]; [7])?
**A.** -22.4 cal/mol/deg

**Q.** And the “affinity for free PfSpdS (in words)” value (PfSpdS [2]; free PfSpdS, detection limit KD ~ 300 μM)?
**A.** no measurable affinity

**Q.** What does the source list for NCCCCNCCCN [Spermidine, spermidine]?
**A.** affinity for free PfSpdS (in words) (PfSpdS [2]): no measurable affinity; Kd (PfSpdS [2]; [9]): 1.2 ± 0.3 µM; Kd (PfSpdS [2]; [10]): > 300 µM; ΔH (PfSpdS [2]; [7]): -6.1 ± 0.3 kcal/mol; ΔS (PfSpdS [2]; [7]): 6.74 cal/mol/deg

**Q.** Which results are given for C[S+](CCCN)CC1OC(n2cnc3c(N)ncnc32)C(O)C1O (stereo not drawn) [dcAdoMet, decarboxylated S-adenosylmethionine]?
**A.** Kd (PfSpdS [2]; [10]): 3.7 ± 0.7 µM; ΔH (PfSpdS [2]; [5]): -2.4 ± 0.2 kcal/mol; ΔS (PfSpdS [2]; [5]): 16.7 cal/mol/deg

**Q.** For NCCCSC[C@H]1O[C@@H](n2cnc3c(N)ncnc32)[C@H](O)[C@@H]1O [decarboxylated S-adenosylhomocysteine], which Kd (human SpdS) is on record?
**A.** 1.1 µM
